The source of these data is patent US20100016400A1, “AZABICYCLIC MUSCARINIC RECEPTOR ANTAGONISTS” (priority 2004, published 2010).

The term melting point denotes the temperature of the solid-liquid transition. The compound `CNCC1C2CN(C(=O)C(O)(c3ccccc3)C(F)(F)F)CC12` (stereo not drawn) had a melting point of 110 to 113 °C.
For `CN(C)C1C2CN(C(=O)C(O)(c3ccccc3)C3CCCCC3)CC21` (stereo not drawn) the value was 71.3 to 72.7 °C.
For `CNCC1C2CN(C(=O)C(O)(c3ccc(C)cc3)C(F)(F)F)CC12` (stereo not drawn) the value was 191 to 194 °C.
For `CNCC1C2CN(C(=O)C(O)(c3ccccc3)C3CCCCC3)CC12` (stereo not drawn) the value was 140 to 142 °C; for `CNC1C2CN(C(=O)C(O)(c3ccccc3)C(F)(F)F)CC21` (stereo not drawn), 179.7 to 182 °C; for `CNC1C2CN(C(=O)C(O)(c3ccc(C)cc3)C(F)(F)F)CC21` (stereo not drawn), 178 to 179.4 °C.
